From US20250312497A1, “METHOD OF TREATING PROSTATE CANCER” (Novartis AG, priority 2022, published 2025)

System: PSMA-positive mCRPC participants
Experiment: PSMAfore phase III: adverse events, serious adverse events, safety topics and deaths (safety set)
Format: in vivo, human
[1] = DCO 2 Oct 2022, safety set, preferred term
[2] = DCO 2 Oct 2022, safety set, system organ class
[3] = DCO 21 Jun 2023, ARDT prior to crossover
[4] = DCO 21 Jun 2023, most common AEs by PT (>10% in either arm)
[5] = DCO 21 Jun 2023, safety set, All Grades
[6] = DCO 21 Jun 2023, safety set, Grade >=3
[7] = Safety set, [[…]Lu]Lu-PSMA-617 N = 227, ARDT N = 232
[8] = Safety set, [[…]Lu]Lu-PSMA-617 N = 227, ARDT N = 232 (prior to crossover), CTCAE V5.0

## O=C([O-])CN1CCN(CC(=O)[O-])CCN(CC(=O)NCC2CCC(C(=O)N[C@@H](Cc3ccc4ccccc4c3)C(=O)NCCCC[C@H](NC(=O)N[C@@H](CCC(=O)O)C(=O)O)C(=O)O)CC2)CCN(CC(=O)[O-])CC1.[177Lu+3] (stereo partly shown) [[177Lu]Lu-PSMA-617, lutetium (177Lu) vipivotide tetraxetan]
[1]
  On-treatment deaths: Coma: 0 n (%)
  On-treatment deaths: Dyspnoea: 0 n (%)
  On-treatment deaths: Intestinal ischaemia: 1 (0.4) n (%)
  On-treatment deaths: Sepsis: 1 (0.4) n (%)
[2]
  On-treatment deaths: Cardiac disorders: 1 (0.4) n (%)
  On-treatment deaths: Gastrointestinal disorders: 1 (0.4) n (%)
  On-treatment deaths: Infections and infestations: 2 (0.9) n (%)
  On-treatment deaths: Nervous system disorders: 0 n (%)
  On-treatment deaths: Respiratory, thoracic and mediastinal disorders: 0 n (%)
[3]
  AEs leading to discontinuation, Treatment-related: 3.1%
  Grade≥3 AEs, Treatment-related: 11.0%
  Serious AEs, Treatment-related: 3.1%
[4]
  Anaemia: 24.2%
  Arthralgia: 18.9%
  Asthenia: 31.7%
  Back pain: 12.3%
  COVID-19: 16.3%
  Constipation: 22.0%
  Decreased appetite: 21.1%
  Diarrhoea: 16.3%
  Dry mouth: 57.3%
  Fatigue: 22.9%
  Nausea: 31.3%
  Oedema peripheral: 8.4%
  Vomiting: 11.5%
  Weight decreased: 6.6%
[5]
  AE preferred term: Anaemia: 55 (24.2) n (%)
  AE preferred term: Arthralgia: 43 (18.9) n (%)
  AE preferred term: Asthenia: 72 (31.7) n (%)
  AE preferred term: Back pain: 28 (12.3) n (%)
  AE preferred term: COVID-19: 37 (16.3) n (%)
  AE preferred term: Constipation: 50 (22.0) n (%)
  AE preferred term: Decreased appetite: 48 (21.1) n (%)
  AE preferred term: Diarrhoea: 37 (16.3) n (%)
  AE preferred term: Dry mouth: 130 (57.3) n (%)
  AE preferred term: Fatigue: 52 (22.9) n (%)
  AE preferred term: Nausea: 71 (31.3) n (%)
  AE preferred term: Oedema peripheral: 19 (8.4) n (%)
  AE preferred term: Vomiting: 26 (11.5) n (%)
  AE preferred term: Weight decreased: 15 (6.6) n (%)
  Adverse events (participants with at least one event): 223 (98.2) n (%)
  Adverse events leading to discontinuation: 13 (5.7) n (%)
  Adverse events leading to discontinuation, Treatment-related: 7 (3.1) n (%)
  Adverse events leading to dose adjustment: 8 (3.5) n (%)
  Adverse events leading to dose interruption: 27 (11.9) n (%)
  Adverse events requiring additional therapy: 162 (71.4) n (%)
  Adverse events, Treatment-related: 196 (86.3) n (%)
  Fatal serious adverse events: 4 (1.8) n (%)
  Fatal serious adverse events, Treatment-related: 0 n (%)
  Serious adverse events: 46 (20.3) n (%)
  Serious adverse events, Treatment-related: 7 (3.1) n (%)
[6]
  AE preferred term: Anaemia: 14 (6.2) n (%)
  AE preferred term: Arthralgia: 0 n (%)
  AE preferred term: Asthenia: 1 (0.4) n (%)
  AE preferred term: Back pain: 2 (0.9) n (%)
  AE preferred term: COVID-19: 1 (0.4) n (%)
  AE preferred term: Constipation: 1 (0.4) n (%)
  AE preferred term: Decreased appetite: 0 n (%)
  AE preferred term: Diarrhoea: 0 n (%)
  AE preferred term: Dry mouth: 3 (1.3) n (%)
  AE preferred term: Fatigue: 0 n (%)
  AE preferred term: Nausea: 0 n (%)
  AE preferred term: Oedema peripheral: 0 n (%)
  AE preferred term: Vomiting: 0 n (%)
  AE preferred term: Weight decreased: 2 (0.9) n (%)
  Adverse events (participants with at least one event): 78 (34.4) n (%)
  Adverse events leading to discontinuation: 8 (3.5) n (%)
  Adverse events leading to discontinuation, Treatment-related: 4 (1.8) n (%)
  Adverse events leading to dose adjustment: 3 (1.3) n (%)
  Adverse events leading to dose interruption: 13 (5.7) n (%)
  Adverse events requiring additional therapy: 48 (21.1) n (%)
  Adverse events, Treatment-related: 25 (11.0) n (%)
  Fatal serious adverse events: 4 (1.8) n (%)
  Fatal serious adverse events, Treatment-related: 0 n (%)
  Serious adverse events: 41 (18.1) n (%)
  Serious adverse events, Treatment-related: 6 (2.6) n (%)
[7]
  Serious adverse event Acute kidney injury, All Grades: 2 (0.9) n (%)
  Serious adverse event Acute kidney injury, Grade >=3: 2 (0.9) n (%)
  Serious adverse event Anaemia, All Grades: 4 (1.8) n (%)
  Serious adverse event Anaemia, Grade >=3: 3 (1.3) n (%)
  Serious adverse event COVID-19, All Grades: 1 (0.4) n (%)
  Serious adverse event COVID-19, Grade >=3: 1 (0.4) n (%)
  Serious adverse event Femur fracture, All Grades: 2 (0.9) n (%)
  Serious adverse event Femur fracture, Grade >=3: 2 (0.9) n (%)
  Serious adverse event Haematuria, All Grades: 0 n (%)
  Serious adverse event Haematuria, Grade >=3: 0 n (%)
  Serious adverse event Pain, All Grades: 1 (0.4) n (%)
  Serious adverse event Pain, Grade >=3: 1 (0.4) n (%)
  Serious adverse event Pneumonia, All Grades: 1 (0.4) n (%)
  Serious adverse event Pneumonia, Grade >=3: 1 (0.4) n (%)
  Serious adverse event Sepsis, All Grades: 3 (1.3) n (%)
  Serious adverse event Sepsis, Grade >=3: 3 (1.3) n (%)
  Serious adverse event Spinal cord compression, All Grades: 2 (0.9) n (%)
  Serious adverse event Spinal cord compression, Grade >=3: 2 (0.9) n (%)
  Serious adverse event Urinary retention, All Grades: 1 (0.4) n (%)
  Serious adverse event Urinary retention, Grade >=3: 1 (0.4) n (%)
  Serious adverse event Urinary tract infection, All Grades: 4 (1.8) n (%)
  Serious adverse event Urinary tract infection, Grade >=3: 3 (1.3) n (%)
[8]
  Serious adverse events: number of participants with at least one event, All Grades: 46 (20.3) n (%)
  Serious adverse events: number of participants with at least one event, Grade >=3: 41 (18.1) n (%)
